Test results reported in ChEMBL document CHEMBL1201862, “PubChem BioAssay data set” (2004).
“And” between values parts separate entries of the source, which are not always exact repeats. Equal entries are not always repeated.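 Following 48 hours of exposure in 96-well plates, responses at five concentrations were used to interpolate endpoints linearly. GI50 = concentration required for 50% inhibition of growth.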 The source made the active and inactive calls. No stated cut-off is given here; in the data, active = GI50 up to about 1.1 µM and inactive = higher.

Experiments:
Assay in all cases: NCI anticancer screen, dose series, 48 h
OVCAR-5 = test system: OVCAR-5
COLO 205 = test system: COLO 205
UO-31 = test system: UO-31
NCI-H522 = test system: NCI-H522
CAKI-1 = test system: CAKI-1
MOLT-4 = test system: MOLT-4
IGROV-1 = test system: IGROV-1
NCI/ADR-RES = test system: NCI/ADR-RES
MDA-MB-435 = test system: MDA-MB-435
ACHN = test system: ACHN
HCT-116 = test system: HCT-116
786-0 = test system: 786-0
A498 = test system: A498
HOP-62 = test system: HOP-62
EKVX = test system: EKVX
HCT-15 = test system: HCT-15
NCI-H226 = test system: NCI-H226
SF-268 = test system: SF-268
RXF 393 = test system: RXF 393
UACC-62 = test system: UACC-62

Structure (SMILES)	GI50 (OVCAR-5)	GI50 (COLO 205)	GI50 (UO-31)	GI50 (NCI-H522)	GI50 (CAKI-1)	GI50 (MOLT-4)	GI50 (IGROV-1)	GI50 (NCI/ADR-RES)	GI50 (MDA-MB-435)	GI50 (ACHN)	GI50 (HCT-116)	GI50 (786-0)	GI50 (A498)	GI50 (HOP-62)	GI50 (EKVX)	GI50 (HCT-15)	GI50 (NCI-H226)	GI50 (SF-268)	GI50 (RXF 393)	GI50 (UACC-62)
C=C1CC[C@@H]2[C@](C)(COC(=O)CCC(=O)OC)CCC[C@@]2(C)[C@@H]1CCC1=CC(=O)OC1	> 100 µM (inactive)	77.8 µM (inactive)	> 100 µM (inactive)	25.9 µM (inactive)	26.2 µM (inactive)	17.4 µM (inactive)	> 100 µM (inactive)	72.8 µM (inactive)	> 100 µM (inactive)	> 100 µM (inactive)	59.8 µM (inactive)	70.5 µM (inactive)	> 100 µM (inactive)	> 100 µM (inactive)	> 100 µM (inactive)	39.5 µM	74.3 µM (inactive)			
Cc1ccc([N+](=O)[O-])cc1S(=O)(=O)Nc1ccc(C2=NN(S(=O)(=O)c3cc([N+](=O)[O-])ccc3C)C(c3ccco3)C2)cc1 (stereo not given)	> 100 µM (inactive)	39.4 µM (inactive)	41.1 µM (inactive)	45 µM (inactive)	45.8 µM (inactive)	28.2 µM (inactive)	29.6 µM (inactive)	40.3 µM (inactive)	54.7 µM (inactive)	36.6 µM (inactive)	31.9 µM (inactive)	48.8 µM (inactive)		45.2 µM (inactive)	29.2 µM (inactive)	41.7 µM	38.9 µM (inactive)	53.3 µM (inactive)	26.8 µM (inactive)	21.8 µM (inactive)
C=CCN(c1cc(OC)c2c(c1[N+](=O)[O-])C(C)(SC)C(=O)N2)S(C)(=O)=O (stereo not given)		> 100 µM (inactive)	> 100 µM (inactive)	82.2 µM (inactive)	> 100 µM (inactive)		> 100 µM (inactive)	> 100 µM (inactive)	> 100 µM (inactive)	> 100 µM (inactive)	> 100 µM (inactive)	87.7 µM (inactive)	> 100 µM (inactive)			> 100 µM	> 100 µM (inactive)	83.6 µM (inactive)		71.4 µM (inactive)
O=C1C([N-]S(=O)(=O)c2ccccc2)=C([n+]2ccc(Cc3ccccc3)cc2)C(=O)c2ccccc21	2.03 µM (inactive)	0.0644 µM (active)	2.13 µM (inactive)	0.614 µM (active)	1.73 µM (inactive)	1.81 µM (inactive)	1.79 µM (inactive)	2.83 µM (inactive)	0.18 µM (active)	1.79 µM (inactive)	0.91 µM (active)	1.73 µM (inactive)		1.75 µM (inactive)	1.76 µM (inactive)	1.69 µM	1.67 µM (inactive)	1.71 µM (inactive)	2.31 µM (inactive)	1.15 µM (inactive)
Clc1n[nH]c2ccccc12	> 100 µM (inactive)	> 100 µM (inactive)	> 100 µM (inactive)	> 100 µM (inactive)		> 100 µM (inactive)	> 100 µM (inactive)	> 100 µM (inactive)	> 100 µM (inactive)	> 100 µM (inactive)	> 100 µM (inactive)	> 100 µM (inactive)	> 100 µM (inactive)	> 100 µM (inactive)	86.5 µM (inactive)	> 100 µM	71 µM (inactive)	> 100 µM (inactive)	> 100 µM (inactive)	> 100 µM (inactive)
O=C(NCCNCCO)N/N=C/c1ccc(Cl)cc1	> 100 µM (inactive)	> 100 µM (inactive)	> 100 µM (inactive)	> 100 µM (inactive)	> 100 µM (inactive)	> 100 µM (inactive)	> 100 µM (inactive)	> 100 µM (inactive)	> 100 µM (inactive)	> 100 µM (inactive)	> 100 µM (inactive)	> 100 µM (inactive)	> 100 µM (inactive)	> 100 µM (inactive)		> 100 µM	> 100 µM (inactive)	> 100 µM (inactive)		> 100 µM (inactive)
Cc1ccc(/C=C2\CCS(=O)(=O)c3ccccc3C2=O)cc1	26.7 µM (inactive)	15.2 µM (inactive)	12.6 µM (inactive)		18.3 µM (inactive)	9.1 µM (inactive)	11.4 µM (inactive)	11.5 µM (inactive)	20.6 µM (inactive)	15.2 µM (inactive)	13.1 µM (inactive)	16.3 µM (inactive)	21.2 µM (inactive)	26.7 µM (inactive)	17.6 µM (inactive)	11.9 µM	16.6 µM (inactive)	18.3 µM (inactive)	22.7 µM (inactive)	17.3 µM (inactive)
O=c1c(Cl)c(Cl)cnn1-c1ccccc1			4.18 µM (inactive) and 3.56 µM (inactive)	1.26 µM (inactive) and 1.84 µM (inactive)		1.82 µM (inactive) and 1.47 µM (inactive)		2 µM (inactive)	1.79 µM (inactive) and 2.08 µM (inactive)	7.11 µM (inactive) and 5.04 µM (inactive)	2.29 µM (inactive) and 1.75 µM (inactive)	5.64 µM (inactive) and 4.79 µM (inactive)	14.9 µM (inactive) and 17.1 µM (inactive)	15 µM (inactive) and 8.49 µM (inactive)		2.35 µM and 1.85 µM	9.38 µM (inactive) and 9.14 µM (inactive)	5.05 µM (inactive) and 6.64 µM (inactive)	1.9 µM (inactive) and 2.52 µM (inactive)	1.67 µM (inactive) and 2.21 µM (inactive)
COc1ccc(-c2c(/C=N/OCC(=O)O)c3sc4ccccc4n3c2/C=N/OCC(=O)O)cc1	> 50 µM (inactive)	> 50 µM (inactive)	11.9 µM (inactive)	> 50 µM (inactive)	> 50 µM (inactive)	> 50 µM (inactive)	> 50 µM (inactive)	> 50 µM (inactive)	> 50 µM (inactive)	> 50 µM (inactive)	> 50 µM (inactive)	> 50 µM (inactive)		> 50 µM (inactive)	> 50 µM (inactive)	> 50 µM		> 50 µM (inactive)	> 50 µM (inactive)	> 50 µM (inactive)
CSC(=O)c1sc(SC)[n+](-c2ccccc2)c1O	18.7 µM (inactive)	27.7 µM (inactive)	17.3 µM (inactive)	10.4 µM (inactive)		11.1 µM (inactive)	19.2 µM (inactive)	30.3 µM (inactive)	18.7 µM (inactive)	27.9 µM (inactive)	16.8 µM (inactive)	17.9 µM (inactive)	30.1 µM (inactive)	17 µM (inactive)	> 10 µM (inactive)	21 µM	22.5 µM (inactive)	16.4 µM (inactive)	14.5 µM (inactive)	15.6 µM (inactive)
C=C1c2ccccc2Oc2nc3nc(N)c(C#N)c(N)c3c(N)c21	85.5 µM (inactive)	19.6 µM (inactive)	25.2 µM (inactive)		30.8 µM (inactive)	23.7 µM (inactive)	2.39 µM (inactive)	28.4 µM (inactive)	30.5 µM (inactive)	40.5 µM (inactive)	22.9 µM (inactive)	27 µM (inactive)	> 100 µM (inactive)	19.1 µM (inactive)	11.9 µM (inactive)	16.9 µM	20.1 µM (inactive)	21.6 µM (inactive)	58.1 µM (inactive)	35.7 µM (inactive)
CN1CC[C@]2(c3cccc(O)c3)CC(=O)/C(=C/c3ccc(Cl)c(Cl)c3)[C@@H]1C2	1.77 µM (inactive)	1.6 µM (inactive)	1.32 µM (inactive)		1.08 µM (active)	0.273 µM (active)	1.88 µM (inactive)	1.54 µM (inactive)	0.337 µM (active)	1.15 µM (inactive)	1.13 µM (inactive)	1.05 µM (active)	1.63 µM (inactive)		1.55 µM (inactive)	1.16 µM	2.34 µM (inactive)	1.71 µM (inactive)	0.427 µM (active)	
O=P(Oc1ccccc1)(Oc1ccccc1)Oc1c[nH]c2ccccc12	0.0449 µM (active)	2.37 µM (inactive)	5.33 µM (inactive)		4.13 µM (inactive)	6.53 µM (inactive)	4.07 µM (inactive)	3.45 µM (inactive)	12.2 µM (inactive)		15.2 µM (inactive)	15.5 µM (inactive)	14.1 µM (inactive)	14.9 µM (inactive)	0.296 µM (active)	12.8 µM	9.68 µM (inactive)	11.1 µM (inactive)	13.7 µM (inactive)	8.97 µM (inactive)
NC1=NCC(CN2CCOCC2)O1 (stereo not given)	> 100 µM (inactive)	> 100 µM (inactive)	> 100 µM (inactive)	> 100 µM (inactive)	> 100 µM (inactive)	> 100 µM (inactive)	> 100 µM (inactive)	> 100 µM (inactive)	> 100 µM (inactive)	> 100 µM (inactive)	> 100 µM (inactive)	> 100 µM (inactive)	> 100 µM (inactive)	> 100 µM (inactive)	> 100 µM (inactive)	> 100 µM		> 100 µM (inactive)	> 100 µM (inactive)	> 100 µM (inactive)
COc1ccc(/C=C(/c2ccc(OC)cc2)c2c(Cl)cc(Cl)c(/C(=C\c3ccc(OC)cc3)c3ccc(OC)cc3)c2/N=N/c2ccccc2)cc1	> 100 µM (inactive)	> 100 µM (inactive)	> 100 µM (inactive)	> 100 µM (inactive)	> 100 µM (inactive)	88.7 µM (inactive)	> 100 µM (inactive)	> 100 µM (inactive)	> 100 µM (inactive)	72.4 µM (inactive)	> 100 µM (inactive)	> 100 µM (inactive)	98.2 µM (inactive)	> 100 µM (inactive)	> 100 µM (inactive)	> 100 µM		> 100 µM (inactive)	> 100 µM (inactive)	> 100 µM (inactive)
